The text below walks through data of patent US12227496B2 (BRISTOL-MYERS SQUIBB COMPANY, priority 2019, dated 2025).

The structures appear in SMILES notation.

The target of this assay is T1, human FXR (Homo sapiens, UniProt Q96RI1).
T1 construct: expressed in transfected cells; host or cells: HEK293 cells stably carrying a 5xGal4-response-element firefly luciferase reporter, transiently transfected with pcDNA3.1-Gal4-FXR
T1 sequence (Q96RI1 262-486 limits assumed): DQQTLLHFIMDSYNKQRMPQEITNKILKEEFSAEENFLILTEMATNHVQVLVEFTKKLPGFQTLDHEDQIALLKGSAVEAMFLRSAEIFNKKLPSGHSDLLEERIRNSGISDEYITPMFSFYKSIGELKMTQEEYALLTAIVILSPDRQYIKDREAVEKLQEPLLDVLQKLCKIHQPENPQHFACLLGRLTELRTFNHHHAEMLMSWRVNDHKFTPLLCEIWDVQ
In words: transient human FXR/Gal4-luciferase reporter assay. The format is cell-based. As to conditions: Gal4-hFXR LBD fusion, luciferase reporter in HEK293 cells; response relative to 8 μM GW-4064. The protocol:
A Gal4-hFXR fusion construct reporter system was used as the primary assay to characterize compound activity. A construct including 5 copies of the Gal4 promoter response element upstream of a firefly luciferase reporter cDNA was stably expressed in HEK293 cells. This reporter cell line was maintained in Dulbecco's Modified Eagle's medium (DMEM; Gibco) supplemented with 1% penicillin-streptomycin (P/S) solution, 500 μg/mL Zeocin and 10% charcoal/dextran-treated fetal bovine serum (cs-FBS) at 37° C. in a humidified 5% CO2 atmosphere. […] The day prior to transfection, the reporter cells in culture are detached from the plate with trypsin and plated into a T75 flask at a sufficient density to achieve approximately 90% confluence the next morning. […] The mixture is further diluted with 10 mL of a solution comprised of DMEM, 10% cs-FBS, and 1% P/S immediately prior to transferring to the cells. The maintenance culture media is aspirated from the cells and the final transfection mixture is added before the cells are incubated overnight at 37° C. in a humidified 5% CO2 atmosphere. This protocol can be scaled up, and the transiently transfected cells can be cryopreserved in an assay-ready format. For compound testing, 100 nL of the compounds (serial dilutions in DMSO) are dispensed with an Echo acoustic dispenser (Labcyte) into the wells of a Corning/Costar clear bottom 384-well white plate. The transfected cells are harvested, counted, and diluted such that 10-25,000 cells in 25 μL are plated into each well of the 384-well compound assay plate. The compound-treated cells are incubated overnight at 37° C. in a humidified 5% CO2 atmosphere. The next morning 25 μL of Steady-Glo (Promega) are added to each well of the plate, the mixture is incubated for 15 min. with shaking, and luminescence is measured on an Envision (Perkin Elmer) plate reader.
Regarding `CC(C)(C)c1noc(C23CCC(CN(C(=O)C4CCC(F)(F)CC4)c4cc(F)cc(-c5nc(C6CC6)no5)c4)(CC2)CC3)n1` [Example 114, N-((4-(3-(tert-butyl)-1,2,4-oxadiazol-5-yl)bicyclo[2.2.2]octan-1-yl)methyl)-N-(3-(3-cyclopropyl-1,2,4-oxadiazol-5-yl)-5-fluorophenyl)-4,4-difluorocyclohexane-1-carboxamide], the half-maximal effective concentration (EC50) was determined as 0.325 µM.

`Cn1nc(C2CC2)cc1C12CCC(CN(C(=O)C3CCOCC3)c3cccc(-c4ccc(S(C)(=O)=O)cc4)c3)(CC1)CC2` [Example 134, N-((4-(3-cyclopropyl-1-methyl-1H-pyrazol-5-yl)bicyclo[2.2.2]octan-1-yl)methyl)-N-(4′-(methylsulfonyl)-[1,1′-biphenyl]-3-yl)tetrahydro-2H-pyran-4-carboxamide] registered an EC50 of 0.511 µM.

`O=C(C1CCC(F)(F)CC1)N(CC12CCC(c3nc(C4CC4)no3)(CC1)CC2)c1cccc(-c2nc3cc(F)ccc3o2)c1` [Example 93, N-((4-(3-cyclopropyl-1,2,4-oxadiazol-5-yl)bicyclo[2.2.2]octan-1-yl)methyl)-4,4-difluoro-N-(3-(5-fluorobenzo[d]oxazol-2-yl)phenyl)cyclohexane-1-carboxamide]: the concentration for a half-maximal effect (EC50) was 0.799 µM. This EC50 lies about 1.6-fold higher than the previous one. To `CC(C)(C)c1noc(C23CCC(CN(C(=O)C4CCC(F)(F)CC4)c4cccc(-c5cn[nH]c(=O)c5)c4)(CC2)CC3)n1` [Example 127, N-((4-(3-(tert-Butyl)-1,2,4-oxadiazol-5-yl)bicyclo[2.2.2]octan-1-yl)methyl)-4,4-difluoro-N-(3-(6-oxo-1,6-dihydropyridazin-4-yl)phenyl)cyclohexane-1-carboxamide] belongs 4 µM; to `COc1cc(-c2cccc(N(CC34CCC(c5nnc(C)s5)(CC3)CC4)C(=O)C3CCC(F)(F)CC3)c2)ccn1` [Example 82, 4,4-difluoro-N-(3-(2-methoxypyridin-4-yl)phenyl)-N-((4-(5-methyl-1,3,4-thiadiazol-2-yl)bicyclo[2.2.2]octan-1-yl)methyl)cyclohexane-1-carboxamide], 4.76 µM; to `COc1nccc(-c2cccc(N(CC34CCC(c5nc(C6CC6)no5)(CC3)CC4)C(=O)C3CCOCC3)c2)n1` [Example 84, N-((4-(3-cyclopropyl-1,2,4-oxadiazol-5-yl)bicyclo[2.2.2]octan-1-yl)methyl)-N-(3-(2-methoxypyrimidin-4-yl)phenyl)tetrahydro-2H-pyran-4-carboxamide], 1.77 µM. The result for `CC(F)(F)c1nc(C23CCC(CN(C(=O)C4CCC(F)(F)CC4)c4ccc(F)c(-c5ccc(S(C)(=O)=O)cc5)c4)(CC2)CC3)no1` [Example 107, N-((4-(5-(1,1-difluoroethyl)-1,2,4-oxadiazol-3-yl)bicyclo[2.2.2]octan-1-yl)methyl)-4,4-difluoro-N-(6-fluoro-4′-(methylsulfonyl)-[1,1′-biphenyl]-3-yl)cyclohexane-1-carboxamide] reads 1.02 µM; that for `O=C(C1CCC(F)(F)CC1)N(CC12CCC(c3nc(C4CC4)no3)(CC1)CC2)c1cccc(-c2cnc(C3CC3)o2)c1` [Example 26, N-((4-(3-cyclopropyl-1,2,4-oxadiazol-5-yl)bicyclo[2.2.2]octan-1-yl)methyl)-N-(3-(2-cyclopropyloxazol-5-yl)phenyl)-4,4-difluorocyclohexane-1-carboxamide], 0.355 µM; that for `O=C(C1CCCCC1)N(CC12CCC(c3nc(C4CC4)no3)(CC1)CC2)c1cccc(-c2nc(C3CC3)no2)c1` [Example 13, N-((4-(3-cyclopropyl-1,2,4-oxadiazol-5-yl)bicyclo[2.2.2]octan-1-yl)methyl)-N-(3-(3-cyclopropyl-1,2,4-oxadiazol-5-yl)phenyl)cyclohexanecarboxamide], 0.082 µM.

In turn, `CCOc1cc(-c2cccc(N(CC34CCC(c5nc(C6CC6)no5)(CC3)CC4)C(=O)C3CCC(F)(F)CC3)c2)ccn1` [Example 79, N-((4-(3-cyclopropyl-1,2,4-oxadiazol-5-yl)bicyclo[2.2.2]octan-1-yl)methyl)-N-(3-(2-ethoxypyridin-4-yl)phenyl)-4,4-difluorocyclohexane-1-carboxamide] registered an EC50 of 0.408 µM.

Compound `COc1cccc(-c2cccc(N(C(=O)C3CCCCC3)C(C)C34CCC(c5nc(C)no5)(CC3)CC4)c2)c1` (single isomer, unassigned) [Example 95, N-(3′-methoxy-[1,1′-biphenyl]-3-yl)-N-(1-(4-(3-methyl-1,2,4-oxadiazol-5-yl)bicyclo[2.2.2]octan-1-yl)ethyl)cyclohexanecarboxamide] displayed a half-maximal effective concentration (EC50) of 6.67 µM. Compared with the last compound, the EC50 is about 16-fold higher. To `CC(F)(F)c1nc(C23CCC(CN(C(=O)C4CCC(F)(F)CC4)c4cccc(-c5cc(C6CC6)no5)c4)(CC2)CC3)no1` [Example 150, N-(3-(3-cyclopropylisoxazol-5-yl)phenyl)-N-((4-(5-(1,1-difluoroethyl)-1,2,4-oxadiazol-3-yl)bicyclo[2.2.2]octan-1-yl)methyl)-4,4-difluorocyclohexane-1-carboxamide] belongs 0.038 µM; to `O=C(C1CCCCC1)N(CC12CCC(c3nc(C4CC4)no3)(CC1)CC2)c1cccc(-c2cnc(C3CCOCC3)o2)c1` [Example 34, N-((4-(3-cyclopropyl-1,2,4-oxadiazol-5-yl)bicyclo[2.2.2]octan-1-yl)methyl)-N-(3-(2-(tetrahydro-2H-pyran-4-yl)oxazol-5-yl)phenyl)cyclohexanecarboxamide], 0.212 µM. `O=C(C1CCOCC1)N(CC12CCC(c3nc(CC4CC4)no3)(CC1)CC2)c1cccc(-c2nc(C3CC3)no2)c1` [Example 45, N-(3-(3-cyclopropyl-1,2,4-oxadiazol-5-yl)phenyl)-N-((4-(3-(cyclopropylmethyl)-1,2,4-oxadiazol-5-yl)bicyclo[2.2.2]octan-1-yl)methyl)tetrahydro-2H-pyran-4-carboxamide] yielded a half-maximal effective concentration (EC50) of 0.278 µM. To `CCc1noc(-c2cccc(N(CC34CCC(c5nc(C6CC6)no5)(CC3)CC4)C(=O)C3CCC(F)(F)CC3)c2)n1` [Example 5, N-((4-(3-cyclopropyl-1,2,4-oxadiazol-5-yl)bicyclo[2.2.2]octan-1-yl)methyl)-N-(3-(3-ethyl-1,2,4-oxadiazol-5-yl)phenyl)-4,4-difluorocyclohexane-1-carboxamide] belongs 0.799 µM; to `CC(F)(F)c1nc(C23CCC(CN(C(=O)C4CCC(F)(F)CC4)c4cccc(-c5ccc(OC(F)F)cc5)c4)(CC2)CC3)no1` [Example 111, N-((4-(5-(1,1-difluoroethyl)-1,2,4-oxadiazol-3-yl)bicyclo[2.2.2]octan-1-yl)methyl)-N-(4′-(difluoromethoxy)-[1,1′-biphenyl]-3-yl)-4,4-difluorocyclohexane-1-carboxamide], 0.069 µM. To `CCOC(=O)c1coc(-c2cccc(N(CC34CCC(c5nc(C)no5)(CC3)CC4)C(=O)C3CCCCC3)c2)n1` [Example 19, Ethyl 2-(3-(N-((4-(3-methyl-1,2,4-oxadiazol-5-yl)bicyclo[2.2.2]octan-1-yl)methyl)cyclohexanecarboxamido)phenyl)oxazole-4-carboxylate] belongs 1.56 µM; to `CCOc1ncc(-c2cccc(N(CC34CCC(c5noc(C(C)(C)F)n5)(CC3)CC4)C(=O)c3ccc(OC)cc3)c2)cn1` [Example 143, N-(3-(2-ethoxypyrimidin-5-yl)phenyl)-N-((4-(5-(2-fluoropropan-2-yl)-1,2,4-oxadiazol-3-yl)bicyclo[2.2.2]octan-1-yl)methyl)-4-methoxybenzamide], 0.202 µM.

On to `CC(C)(C)c1noc(C23CCC(CN(C(=O)C4CCOCC4)c4cccc(-c5nc(C6CC6)no5)c4)(CC2)CC3)n1` [Example 69, N-((4-(3-(tert-butyl)-1,2,4-oxadiazol-5-yl)bicyclo[2.2.2]octan-1-yl)methyl)-N-(3-(3-cyclopropyl-1,2,4-oxadiazol-5-yl)phenyl)tetrahydro-2H-pyran-4-carboxamide], for which the EC50 turned out to be 0.162 µM. To `CC(C)(C)c1noc(C23CCC(CN(C(=O)C4CCC(F)(F)CC4)c4cccc(-c5cc(C6CC6)no5)c4)(CC2)CC3)n1` [Example 147, N-((4-(3-(tert-butyl)-1,2,4-oxadiazol-5-yl)bicyclo[2.2.2]octan-1-yl)methyl)-N-(3-(3-cyclopropylisoxazol-5-yl)phenyl)-4,4-difluorocyclohexane-1-carboxamide] belongs 0.205 µM; to `CCc1noc(-c2cccc(N(C(=O)C3CCCCC3)C(C)C34CCC(c5nc(C)no5)(CC3)CC4)c2)n1` (single isomer, unassigned) [Example 71, N-(3-(3-ethyl-1,2,4-oxadiazol-5-yl)phenyl)-N-(1-(4-(3-methyl-1,2,4-oxadiazol-5-yl)bicyclo[2.2.2]octan-1-yl)ethyl)cyclohexanecarboxamide], 0.547 µM.

The term EC50 denotes the concentration needed to bring the measured effect to its halfway point. A low value points to higher potency in that assay.
